For the experiment, the target named is T1, mitochondrial branched-chain aminotransferase (mBCAT2) (Mus musculus, UniProt O35855).
T1 sequence (O35855 28-393): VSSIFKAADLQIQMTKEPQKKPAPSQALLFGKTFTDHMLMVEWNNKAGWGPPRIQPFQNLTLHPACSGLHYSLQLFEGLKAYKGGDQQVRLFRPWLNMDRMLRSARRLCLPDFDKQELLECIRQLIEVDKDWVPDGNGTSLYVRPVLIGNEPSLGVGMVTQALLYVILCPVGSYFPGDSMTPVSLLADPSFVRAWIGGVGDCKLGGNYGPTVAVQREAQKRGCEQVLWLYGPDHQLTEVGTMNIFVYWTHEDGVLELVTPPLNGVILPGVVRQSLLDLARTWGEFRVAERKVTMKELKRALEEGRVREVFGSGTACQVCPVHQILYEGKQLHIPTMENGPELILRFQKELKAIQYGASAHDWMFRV
As to the kind of experiment: LC-MS transamination assay with Michaelis–Menten kinetics. The class given is biochemical.

For `C=C(CC(=O)O)C(=O)O` [ITA, itaconate], the Ki – broadly, a measure of affinity in units of concentration, obtained from inhibition or displacement – amounted to 15.3 mM.

Values taken from PMC12215950 (Chemical Science, 2025).
